Measurements from paper PMC12040169 (PLOS Biology, 2025).

assay: in vitro; settings: human, hela cells, % viability

Compared with `CCOc1ccc(-c2ccnc(N3C[C@@H](C)O[C@@H](C)C3)n2)cc1C(=O)O` [CBK306584], `O=C(O)c1ccc(CN2CC[C@H](c3nc4ccccc4o3)C2)cc1` [CBK289387] is higher in viability at 28.5 h, 10 µM: 92.5% for the first, 108% for the second.

Compared with `NNS(=O)(=O)c1ccc(Oc2ccc([N+](=O)[O-])cc2)cc1` [CBK261669], `O=C(OCc1ccccc1)Sc1nnc(-c2ccc([N+](=O)[O-])cc2)o1` [CBK264504] is lower in viability at 28.5 h, 10 µM: 95.9% for the first, 91.3% for the second.

Compared with `O=C(O)CNC(=O)CNC(=O)Cn1c(-c2ccccc2)cc2ccccc21` [CBK286550], `CCC(=O)c1c(-c2ccccc2)nc2n(C)c3ccccc3n12` [CBK262488] is lower in viability at 28.5 h, 10 µM: 89.1% for the first, 69.9% for the second.

Compared with `COc1ccc(CN(C)c2c(C)nc3c(OCCCN(C)S(C)(=O)=O)cccn23)cc1` [CBK147468], `COc1cc(Cc2c(OCCN(C)C)nc3ccccn3c2=O)cc(OC)c1OC` [CBK005004C] is higher in viability at 28.5 h, 10 µM: 90% for the first, 99.9% for the second.

Compared with `O=C(Nc1cccc2ccccc12)C1CCCN1S(=O)(=O)c1ccc(Cl)cc1` (stereo not drawn) [CBK138930], `CS(=O)(=O)N(CC(=O)Nc1ccc2ccccc2c1)c1ccc(Cl)cc1Cl` [CBK267501] is lower in viability at 28.5 h, 10 µM: 92.9% for the first, 87.6% for the second.

Going from `COC12CCCC(C(=O)O)(CCC1)C2` [CBK038238] to `COc1ccc2c(c1)c(C(=O)N1CCC3(CCNCC3)CC1)c(C)n2C` [CBK306562], the viability at 28.5 h, 10 µM falls from 93.8% to 72.9%.

First: Cc1ccc2c(c1)cc(C)c1nn(CC(=O)N3CCCC3)c(=O)n12 [CBK283872]
Second: CC1CC(C)CN(C(=O)Cn2c(=O)n(C)c3ncccc32)C1 (stereo not drawn) [CBK283794]
The viability at 28.5 h, 10 µM of the first is higher: 101% for the first, 93.8% for the second.

First: c1cn2c(-c3ccoc3)cnc(N3CCOCC3)c2n1 [CBK091292]
Second: CCCSCC(=O)Nc1nn(C)c2cccc(N3CCOCC3)c12 [CBK307354]
The viability at 28.5 h, 10 µM of the first is lower: 88.7% for the first, 105% for the second.

Going from `OCCC1CCCCN1c1cncc(C2CCOC2)n1` (stereo not drawn) [CBK066127] to `O=C(N[C@H]1CO[C@H]2[C@@H]1OC[C@@H]2n1cc(CC2CCCCC2)nn1)C1CC1` [CBK289509], the viability at 28.5 h, 10 µM falls from 101% to 92.2%.

First: NCCNc1ccc(C(=O)Nc2cccc(Cl)c2)cc1[N+](=O)[O-] [CBK263953]
Second: O=C(O)c1cccc(NS(=O)(=O)Cc2ccccc2[N+](=O)[O-])c1 [CBK038906]
The viability at 28.5 h, 10 µM of the first is lower: 85.3% for the first, 97.8% for the second.

Going from `CCOC(=O)N1CCN(CC(O)COc2cc(C)c(Cl)c(C)c2)CC1` (stereo not drawn) [CBK033833C] to `Cc1oc(NC(=O)CN2CCN(c3ccc(F)cc3)CC2)c(C#N)c1C` [CBK305907], the viability at 28.5 h, 10 µM falls from 88.9% to 86.7%.

Compared with `CCOc1ccc(-n2c(SCc3nc(-c4ccc(C)cc4)no3)nnc2-c2ccncc2)cc1` [CBK268315], `O=C(CSc1nnc(-c2ccncc2)n1-c1ccccc1)N/N=C/c1ccco1` [CBK262828] is lower in viability at 28.5 h, 10 µM: 98.3% for the first, 94.4% for the second.

Compared with `COCc1nnc(Sc2nccnc2N2CCCC2)s1` [CBK093736], `Fc1ccc(Oc2nccnc2N2CCN(Cc3ccccc3F)CC2)cc1` [CBK083009T] is lower in viability at 28.5 h, 10 µM: 95.4% for the first, 91.8% for the second.

Going from `CCCNc1nccnc1-c1cccc(Cl)c1Cl` [CBK088892] to `c1ccc(CCNc2nccnc2-c2ccncc2)nc1` [CBK037378], the viability at 28.5 h, 10 µM falls from 93.8% to 89.3%.

First: O=c1[nH]c(CSc2nnc(COc3ccccc3)o2)nc2ccccc12 [CBK269869]
Second: O=C(Cc1c[nH]c2ccccc12)N1CCCC1c1cccc(Cc2ccccc2F)n1 (stereo not drawn) [CBK285799]
The viability at 28.5 h, 10 µM of the first is lower: 84.9% for the first, 89.7% for the second.

Compared with `Cc1noc(C)c1S(=O)(=O)Nc1ccc2[nH]ncc2c1` [CBK062518], `Cc1nc(N/N=C/c2ccc3c(c2)OCO3)sc1C` [CBK263098] is higher in viability at 28.5 h, 10 µM: 87.8% for the first, 106% for the second.

Going from `O=C1CC[C@@H](NCc2ccncc2)[C@H](c2cc(F)cc(F)c2)N1` [CBK283131] to `O=C(c1cccnc1)N1C2CCC1CC(c1ccc(F)cc1)C2` (stereo not drawn) [CBK283762], the viability at 28.5 h, 10 µM rises from 92.9% to 98.3%.

First: O=C(O)CCNc1ccc(Br)cc1C(=O)O [CBK087259]
Second: CNS(=O)(=O)c1cc(C(=O)O)c(OC)cc1OC [CBK110325]
The viability at 28.5 h, 10 µM of the first is higher: 96.9% for the first, 84.6% for the second.

First: Cc1ccc2[nH]c3c(c2c1)CCNC31CCN(CC2CCCCO2)CC1 (stereo not drawn) [CBK039545]
Second: O=C(c1ccc2c(c1)CCCO2)N(Cc1ccccn1)CC1CCCO1 (stereo not drawn) [CBK307488]
The viability at 28.5 h, 10 µM of the first is higher: 103% for the first, 84.9% for the second.

Going from `CC(C)(CNC(=O)Cn1cccc(C(=O)Nc2ccc(F)cc2)c1=O)c1ccccc1F` [CBK286067] to `COc1ccccc1C(=O)Nc1ccc([C@@H](O)[C@H]2COCC(=O)N2)cc1` [CBK289688], the viability at 28.5 h, 10 µM falls from 97.4% to 97.3%.

Going from `COc1ccc2c(c1)C(C(C(=O)O)C(=O)O)c1ccccc1O2` (stereo not drawn) [CBK266435] to `O=C(Cn1nc(C(=O)O)c2ccccc2c1=O)NCc1ccc(Cl)cc1Cl` [CBK295320], the viability at 28.5 h, 10 µM falls from 93.8% to 85.4%.

Compared with `CC(=O)N1C[C@@H]2CCCCN(CC(=O)NC3CC3)[C@@H]2C1` [CBK285508], `CC(=O)N1CC[C@H]2NC(=O)CNC(=O)C3(CCCC[C@H]2C1)CCN(C(=O)/C=C/c1ccccc1)CC3` [CBK292092] is higher in viability at 28.5 h, 10 µM: 101% for the first, 105% for the second.

First: CC(Nc1cccc2ccccc12)C(=O)N/N=C/c1c(O)ccc2ccccc12 (stereo not drawn) [CBK262678]
Second: O=C1NCC(c2ccccc2)C1C(=O)N/N=C\c1cc(O)ccc1[N+](=O)[O-] (stereo not drawn) [CBK262772]
The viability at 28.5 h, 10 µM of the first is higher: 97.5% for the first, 91.8% for the second.

First: C[C@@H]1CN2CCCC2CN1CCc1ccccc1 (stereo partly drawn) [CBK285424]
Second: Cc1ccc(SCCN2CCN(Cc3ccccc3)CC2)cc1 [CBK268653G]
The viability at 28.5 h, 10 µM of the first is lower: 85.4% for the first, 99.1% for the second.

Compared with `Clc1cc(NCCc2c[nH]c3ccccc23)n2nccc2n1` [CBK037218], `O=C(Cc1c[nH]c2ccccc12)Nc1cncc(OC2CCNCC2)n1` [CBK028441T] is higher in viability at 28.5 h, 10 µM: 40.6% for the first, 91% for the second.

First: CCc1cc2c(=O)c(-c3nc(C)cs3)c(CCC(=O)O)oc2cc1O [CBK264838]
Second: Cc1cccc(NC(=O)CSc2nc(O)c3c(C)cc(C)nc3n2)c1 [CBK266179]
The viability at 28.5 h, 10 µM of the first is higher: 108% for the first, 90.5% for the second.

First: COc1ccc(CCC(=O)N2CCC(N(C)Cc3ccc(-c4ccc(S(C)(=O)=O)cc4)nc3)CC2)cc1Cl [CBK164102T]
Second: CC(=O)Nc1ccc(-c2cccc(COC3CCN(C(=O)Cc4ccc(C#N)cc4)CC3)c2)cc1 [CBK149495]
The viability at 28.5 h, 10 µM of the first is lower: 86.6% for the first, 101% for the second.

Compared with `CCN1CCCC1CNC(=O)c1ccc(C)nc1NCCCn1ccnc1` (stereo not drawn) [CBK076382], `CCOC(=O)C1CSCCN1C(=O)c1ccc(-n2nc(C)cc2C)cc1` (stereo not drawn) [CBK304517] is lower in viability at 28.5 h, 10 µM: 90.7% for the first, 86.4% for the second.

Going from `Nc1c(N(CCO)C(=O)C2CCCC2)c(=O)[nH]c(=O)n1Cc1ccccc1` [CBK297490] to `O=C(O)CC(C(=O)Nc1ccccc1)C1CCCO1` (stereo not drawn) [CBK286809], the viability at 28.5 h, 10 µM falls from 97.3% to 93%.

Compared with `Cc1nc(SCCO)c2c(=O)n(C)c(=O)n(CC(C)C)c2n1` [CBK306114], `CCSc1ccnc2c1c(=O)n(C)c(=O)n2C` [CBK287749] is higher in viability at 28.5 h, 10 µM: 85.8% for the first, 98.9% for the second.

Going from `COc1cc(CN(C)CCc2ccccn2)c([N+](=O)[O-])cc1OC` [CBK261737G] to `Cc1ccc(OCC(O)CN(C)S(=O)(=O)O)c([N+](=O)[O-])c1` (stereo not drawn) [CBK262062K], the viability at 28.5 h, 10 µM falls from 88.3% to 85.3%.

Going from `COc1ccc(-c2ccnc(N[C@H]3CO[C@H]4[C@@H]3OC[C@@H]4NC(=O)c3ccccc3)n2)cc1` [CBK289526] to `O=C(NCc1ccc(OC(F)(F)F)cc1)c1cnoc1-c1ccc(Br)cc1` [CBK154885], the viability at 28.5 h, 10 µM rises from 83.5% to 100%.

Going from `O=C(CNS(=O)(=O)c1ccc(F)cc1)N1CCOCC1` [CBK042214] to `O=C(CN1CCOCC1)Nc1ccc(Cl)cc1C(=O)c1ccccc1` [CBK086450], the viability at 28.5 h, 10 µM falls from 97.7% to 95.9%.

Going from `O=C1c2ccccc2C(=O)N1CC1c2ccccc2CCN1S(=O)(=O)c1cccc2nsnc12` (stereo not drawn) [CBK261133] to `Cc1cccc(Cc2cccc(C3CCCN(C(=O)c4ccc(=O)[nH]c4)C3)n2)c1` (stereo not drawn) [CBK286243], the viability at 28.5 h, 10 µM falls from 108% to 95.9%.

First: CC(C)(C)OC(=O)n1cccc1-c1cncc(-c2ccc(C(=O)N3CCOCC3)cc2)n1 [CBK138520]
Second: CCONC(=O)c1cc(-c2ccccc2C)nc2c1cnn2C(C)C [CBK304048]
The viability at 28.5 h, 10 µM of the first is higher: 100% for the first, 95.5% for the second.

First: Cc1ccc(CNC(=O)CN(c2cccc(C(F)(F)F)c2)S(=O)(=O)c2ccc(C)cc2)cc1 [CBK263997]
Second: O=C(CSc1nnc(-c2cccnc2)n1-c1ccc(Br)cc1)Nc1cc(C(F)(F)F)ccc1Cl [CBK266099]
The viability at 28.5 h, 10 µM of the first is lower: 89.3% for the first, 96.5% for the second.

Compared with `O=C(C1CC1)N1CCC2(CC1)Nc1ccccc1-n1cccc12` [CBK284011], `CC(C)c1nnc(NC(=O)CC2CCN(C(=O)C3(c4ccccc4)CCCC3)CC2)s1` [CBK285905] is higher in viability at 28.5 h, 10 µM: 91.5% for the first, 94.9% for the second.

Going from `CCCOc1ccc(N2C(=O)CC(N3CCC(C(=O)O)CC3)C2=O)cc1` (stereo not drawn) [CBK287235] to `COc1cc(S(=O)(=O)N2CCC(C(N)=O)CC2)ccc1Br` [CBK268766], the viability at 28.5 h, 10 µM falls from 102% to 82.6%.

Compared with `CC(=O)Nc1cccc(-n2nnnc2SCCCCCF)c1` [CBK306164], `CC(C)(C)c1ccc(S(N)(=O)=O)cc1NC(=O)Nc1cccc(F)c1` [CBK093643] is lower in viability at 28.5 h, 10 µM: 110% for the first, 100% for the second.

Going from `COc1ncc(-c2cccc(NCC(c3cccnc3)N(C)C)n2)c(OC)n1` (stereo not drawn) [CBK037723] to `Fc1ccc(-c2nccnc2OCc2ccc3c(c2)OCO3)cc1` [CBK106896], the viability at 28.5 h, 10 µM falls from 104% to 93.3%.

Compared with `O=C(CN1CCCC2(CCN(C(=O)Cc3c[nH]c4ccccc34)C2)C1)Nc1ncccn1` (stereo not drawn) [CBK132048], `OC(CN1CCC(Oc2cccc(F)c2)CC1)c1cccs1` (stereo not drawn) [CBK281453] is higher in viability at 28.5 h, 10 µM: 86.7% for the first, 88.8% for the second.

First: COc1cc(C2N3CC4(C)CN2CC(C)(C3)C4=O)ccc1O (stereo not drawn) [CBK261453]
Second: CC(C)CCC1(CN2CCCC2=O)C(=O)NC(=O)NC1=O [CBK288372]
The viability at 28.5 h, 10 µM of the first is higher: 99.6% for the first, 90.5% for the second.

First: Cc1sc2nc(NCCO)nc(O)c2c1C [CBK018257]
Second: Fc1ccc(-c2cnn(-c3ccc(OC(F)(F)F)cc3)n2)c(F)c1 [CBK112740]
The viability at 28.5 h, 10 µM of the first is lower: 86.9% for the first, 99.1% for the second.

same assay, conditions: human, hela cells, % viability, bulk resorufin, single well

`Cc1ccc(CN2CCN(Cc3ccc([N+](=O)[O-])cc3)CC2)cc1` [CBK263168] showed a viability at 28.5 h, 10 µM of 92.9%.
